Test results published in ChEMBL document CHEMBL4340533, “Discovery of an EGFR tyrosine kinase inhibitor from Ilex latifolia in breast cancer therapy” (Bioorg Med Chem Lett, 2019).
Calls of active or inactive are those of the source. The rule behind the calls is not given here.

Assays:
MDA-MB-231 [1] = assay: Induction of apoptosis in human MDA-MB-231 cells assessed as increase in cleaved caspase 3 expression at 20 to 80 ug/ml by Western blot analysis; format: functional, cell-based
MDA-MB-231 [2] = assay: Antiproliferative activity against human MDA-MB-231 cells assessed as reduction in cell viability after 24 hrs by MTT assay; format: functional, cell-based
MDA-MB-231 [3] = assay: Induction of apoptosis in human MDA-MB-231 cells assessed as early apoptotic cells at 80 ug/ml after 24 hrs by Annexin-V-FITC/propidium iodide staining based FACS analysis relative to control; format: functional
MDA-MB-231 [4] = assay: Induction of apoptosis in human MDA-MB-231 cells assessed as increase in late apoptotic cells at 20 to 40 ug/ml after 24 hrs by Annexin-V-FITC/propidium iodide staining based FACS analysis; format: functional, cell-based
MDA-MB-231 [5] = assay: Induction of apoptosis in human MDA-MB-231 cells assessed as down regulation of PARP1 expression by Western blot analysis; format: functional, cell-based
[6] = molecular target: Epidermal growth factor receptor (Homo sapiens) (UniProt P00533); assay: Inhibition of EGFR phosphorylation in human MDA-MB-231 cells by Western blot analysis; format: cell-based
Sequence of Epidermal growth factor receptor (Homo sapiens) (P00533 whole entry): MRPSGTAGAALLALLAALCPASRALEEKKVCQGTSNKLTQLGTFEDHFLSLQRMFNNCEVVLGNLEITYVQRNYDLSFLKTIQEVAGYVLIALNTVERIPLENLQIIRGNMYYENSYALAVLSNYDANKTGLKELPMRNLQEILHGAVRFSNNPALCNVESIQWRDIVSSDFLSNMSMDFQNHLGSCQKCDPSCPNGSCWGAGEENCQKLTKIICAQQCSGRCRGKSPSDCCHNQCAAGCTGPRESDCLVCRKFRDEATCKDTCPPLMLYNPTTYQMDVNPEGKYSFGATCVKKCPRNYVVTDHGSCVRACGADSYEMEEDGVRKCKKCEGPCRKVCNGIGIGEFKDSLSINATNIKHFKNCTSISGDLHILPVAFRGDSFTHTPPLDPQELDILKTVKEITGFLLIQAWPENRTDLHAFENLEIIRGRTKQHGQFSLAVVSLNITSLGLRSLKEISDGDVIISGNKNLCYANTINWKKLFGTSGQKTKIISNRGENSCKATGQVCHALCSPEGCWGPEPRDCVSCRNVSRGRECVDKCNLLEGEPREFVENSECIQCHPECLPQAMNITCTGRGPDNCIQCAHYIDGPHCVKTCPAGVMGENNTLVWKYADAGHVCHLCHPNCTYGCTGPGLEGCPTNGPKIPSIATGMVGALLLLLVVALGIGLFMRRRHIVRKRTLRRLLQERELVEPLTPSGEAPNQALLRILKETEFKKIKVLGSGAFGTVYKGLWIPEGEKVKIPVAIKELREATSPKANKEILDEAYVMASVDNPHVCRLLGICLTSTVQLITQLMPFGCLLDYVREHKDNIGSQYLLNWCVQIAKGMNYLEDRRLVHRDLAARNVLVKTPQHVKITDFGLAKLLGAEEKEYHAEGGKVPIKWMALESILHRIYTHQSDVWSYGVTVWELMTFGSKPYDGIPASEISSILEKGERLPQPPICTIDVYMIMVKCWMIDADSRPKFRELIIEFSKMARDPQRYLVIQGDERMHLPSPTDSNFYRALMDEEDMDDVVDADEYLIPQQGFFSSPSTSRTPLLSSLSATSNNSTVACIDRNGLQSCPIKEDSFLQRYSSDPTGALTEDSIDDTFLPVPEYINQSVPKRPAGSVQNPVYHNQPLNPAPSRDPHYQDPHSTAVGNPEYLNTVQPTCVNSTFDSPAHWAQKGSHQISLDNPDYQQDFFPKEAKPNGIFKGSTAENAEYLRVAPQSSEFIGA

[7] = tested on: Epidermal growth factor receptor (Homo sapiens), P00533 [L858R]; assay: Inhibition of EGFR L858R mutant (unknown origin) using polyE4Y1 as substrate measured after 60 mins
Sequence of Epidermal growth factor receptor (Homo sapiens), P00533 [L858R] (P00533 whole entry L858R): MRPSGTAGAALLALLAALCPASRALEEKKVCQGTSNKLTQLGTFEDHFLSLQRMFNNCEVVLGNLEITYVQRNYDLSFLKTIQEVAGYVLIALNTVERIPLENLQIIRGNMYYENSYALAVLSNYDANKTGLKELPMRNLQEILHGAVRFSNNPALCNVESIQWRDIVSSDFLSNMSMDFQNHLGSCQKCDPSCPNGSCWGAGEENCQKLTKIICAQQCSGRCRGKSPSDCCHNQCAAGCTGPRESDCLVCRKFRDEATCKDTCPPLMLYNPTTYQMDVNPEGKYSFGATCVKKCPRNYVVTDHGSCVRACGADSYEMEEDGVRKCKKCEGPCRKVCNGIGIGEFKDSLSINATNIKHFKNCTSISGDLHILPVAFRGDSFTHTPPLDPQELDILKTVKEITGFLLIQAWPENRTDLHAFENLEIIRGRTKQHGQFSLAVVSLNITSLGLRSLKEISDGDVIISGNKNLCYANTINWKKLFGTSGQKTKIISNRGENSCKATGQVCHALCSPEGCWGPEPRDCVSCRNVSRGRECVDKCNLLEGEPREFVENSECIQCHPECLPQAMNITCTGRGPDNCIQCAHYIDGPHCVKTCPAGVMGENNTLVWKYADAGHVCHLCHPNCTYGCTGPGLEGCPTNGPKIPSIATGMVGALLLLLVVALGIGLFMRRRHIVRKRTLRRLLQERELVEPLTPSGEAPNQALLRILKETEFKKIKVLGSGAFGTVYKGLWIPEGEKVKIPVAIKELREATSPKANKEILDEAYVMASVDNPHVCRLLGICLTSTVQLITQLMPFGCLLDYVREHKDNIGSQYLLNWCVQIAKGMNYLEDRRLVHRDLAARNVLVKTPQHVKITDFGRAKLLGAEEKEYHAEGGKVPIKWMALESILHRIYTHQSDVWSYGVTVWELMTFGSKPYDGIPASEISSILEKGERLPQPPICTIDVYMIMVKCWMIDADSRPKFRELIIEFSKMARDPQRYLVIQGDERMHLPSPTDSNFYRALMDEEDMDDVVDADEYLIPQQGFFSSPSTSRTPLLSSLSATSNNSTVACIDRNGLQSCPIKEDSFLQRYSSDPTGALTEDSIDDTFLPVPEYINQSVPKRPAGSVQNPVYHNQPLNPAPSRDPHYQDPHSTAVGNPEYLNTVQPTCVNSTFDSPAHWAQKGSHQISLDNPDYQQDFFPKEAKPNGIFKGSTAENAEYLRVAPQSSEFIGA

MDA-MB-231 [8] = assay: Induction of apoptosis in human MDA-MB-231 cells assessed as increase in apoptotic cells after 24 hrs in presence of lapatinib by Annexin-V-FITC/propidium iodide staining based FACS analysis; format: functional, cell-based
MDA-MB-231 [9] = assay: Induction of apoptosis in human MDA-MB-231 cells assessed as increase in apoptotic cells after 24 hrs in presence of EGFR siRNA by Annexin-V-FITC/propidium iodide staining based FACS analysis; format: functional, cell-based
MDA-MB-231 [10] = assay: Antitumor activity against human MDA-MB-231 cells xenografted in athymic BALB/c nude mouse assessed as decrease in tumor volume at 1.25 to 5 mg/kg, […] administered every two days for 28 days measured post-last dose by caliper method; format: functional, organism-based
Mus musculus [11] = assay: Down regulation of RAS expression in athymic BALB/c nude mouse xenografted with human MDA-MB-231 cells at 1.25 to 5 mg/kg, sc administered every two days for 28 days by Western blot analysis; format: functional, organism-based
Mus musculus [12] = assay: Down regulation of PI3K expression athymic BALB/c nude mouse xenografted with human MDA-MB-231 cells at 1.25 to 5 mg/kg, sc administered every two days for 28 days by Western blot analysis; format: functional, organism-based
Mus musculus [13] = assay: Down regulation of mTOR expression in athymic BALB/c nude mouse xenografted with human MDA-MB-231 cells at 1.25 to 5 mg/kg, sc administered every two days for 28 days by Western blot analysis; format: functional, organism-based
Mus musculus [14] = assay: Effect on RAF expression in athymic BALB/c nude mouse xenografted with human MDA-MB-231 cells at 1.25 to 5 mg/kg, sc administered every two days for 28 days by Western blot analysis; format: functional, organism-based
Mus musculus [15] = assay: Induction of ERK phosphorylation in athymic BALB/c nude mouse xenografted with human MDA-MB-231 cells at 1.25 to 5 mg/kg, sc administered every two days for 28 days by Western blot analysis; format: functional, organism-based
Mus musculus [16] = assay: Down regulation of AKT phosphorylation in athymic BALB/c nude mouse xenografted with human MDA-MB-231 cells at 1.25 to 5 mg/kg, sc administered every two days for 28 days by Western blot analysis; format: functional, organism-based
Mus musculus [17] = assay: Effect on MEK expression in athymic BALB/c nude mouse xenografted with human MDA-MB-231 cells at 1.25 to 5 mg/kg, sc administered every two days for 28 days by western blot analysis; format: functional, organism-based
Mus musculus [18] = assay: Effect on MEK phosphorylation in athymic BALB/c nude mouse xenografted with human MDA-MB-231 cells at 1.25 to 5 mg/kg, sc administered every two days for 28 days by western blot analysis; format: functional, organism-based
Mus musculus [19] = assay: Increase in ERK expression in athymic BALB/c nude mouse xenografted with human MDA-MB-231 cells at 1.25 to 5 mg/kg, sc administered every two days for 28 days by Western blot analysis; format: functional, organism-based

- inhibition [6]: Active
- inhibition [7]: Dose-dependent effect
SMILES: C[C@H]1[C@H](C)CC[C@]2(C(=O)O)CC[C@]3(COC(=O)/C=C/c4ccc(O)cc4)C(=CC[C@@H]4[C@@]5(C)CC[C@H](O)C(C)(C)[C@@H]5CC[C@]43C)[C@H]12
- Activity (MDA-MB-231 [1]): Active
- Activity (MDA-MB-231 [2]): Dose-dependent effect
- Activity (MDA-MB-231 [3]): 42.03%
- Activity (MDA-MB-231 [4]): Active
- Activity (MDA-MB-231 [5]): Dose-dependent effect
- Activity (MDA-MB-231 [8]): inactive
- Activity (MDA-MB-231 [9]): inactive
- Activity (MDA-MB-231 [10]): Active
- Activity (Mus musculus [11]): Active
- Activity (Mus musculus [12]): Active
- Activity (Mus musculus [13]): Active
- Activity (Mus musculus [14]): inactive
- Activity (Mus musculus [15]): Active
- Activity (Mus musculus [16]): Active
- Activity (Mus musculus [17]): inactive
- Activity (Mus musculus [18]): inactive
- Activity (Mus musculus [19]): Active
